Measurements as given in PubChem BioAssay (NCI).
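Where inhibition never reached the appropriate level, the endpoint shown equals the highest concentration tested. Otherwise, values were interpolated linearly from a five-concentration, 48-hour dose response in 96-well plates. GI50 is the concentration that inhibits growth by half. The concentration for full growth arrest is given as TGI.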

Columns and labels:
Test in all cases: inhibition of tumour cell growth, NCI panel, 48 h
[1] = system: NCI-H522 lung
[2] = system: HOP-92 NSCLC
[3] = system: CAKI-1 renal
[4] = system: SN12C renal
[5] = system: DU-145 prostate
[6] = system: T-47D breast
[7] = system: TK-10 renal
[8] = system: ACHN renal
[9] = system: HL-60(TB) leukemia
[10] = system: A498 renal

Row | SMILES | TGI [1] [µM] | TGI [2] [µM] | TGI [3] [µM] | TGI [4] [µM] | TGI [5] [µM] | TGI [6] [µM] | TGI [7] [µM] | TGI [8] [µM] | TGI [9] [µM] | TGI [10] [µM] | GI50 [1] [µM] | GI50 [2] [µM] | GI50 [3] [µM] | GI50 [4] [µM] | GI50 [5] [µM] | GI50 [6] [µM] | GI50 [7] [µM] | GI50 [8] [µM] | GI50 [9] [µM] | GI50 [10] [µM]
1 | Nc1ccc(-c2nc3ccccc3s2)cc1C(F)(F)F | 31.6 | 33.2 | 28.7 | 27.3 | 29.2 | 20.6 | 26 | 28.5 | 36.9 | 31.4 | – | – | – | – | – | – | – | – | – | –
2 | c1csc(-c2ccc(-c3cccs3)c3nsnc23)c1 | > 100 | > 100 | > 100 | > 100 | > 70.6 | 1.8 | > 100 | > 100 | 27.1 | > 100 | – | – | – | – | – | – | – | – | – | –
3 | N#CC(N=Nc1ccc(Cl)cc1)c1nc2ccccc2o1 (centres undefined) | 81.1 | 70.4 | > 100 | > 100 | > 100 | > 100 | > 100 | > 100 | > 100 | > 100 | – | – | – | – | – | – | – | – | – | –
4 | COC(=O)CN1c2nc(C#N)c(C#N)nc2N(CC(=O)OC)c2nc(C#N)c(C#N)nc21 | 3.74 | 7.44 | 1.55 | > 100 | 18.3 | 8.6 | 6.78 | 5.72 | 5.61 | > 52 | – | – | – | – | – | – | – | – | – | –
5 | Cc1cn(-c2cc(C(=O)Nc3cccc(-n4ccc5c(NC(=O)c6ccccc6)nccc54)c3)cc(C(F)(F)F)c2)cn1 | 8.21 | 6.49 | 2.99 | 17.1 | 2.2 | 24.2 | 5.27 | 8.7 | 2.5 | 1.71 | 0.375 | 0.39 | 0.52 | 1.04 | 0.525 | 1.9 | 0.855 | 0.549 | 0.451 | 0.223
6 | COC(C)(C)[C@@H](O)[C@H]1C[C@H](C)[C@@]2(CC[C@]3(C)[C@@H]2CC[C@@H]2[C@@]4(C)CC[C@@H](OC(C)=O)C(C)(C)[C@@H]4C[C@@H](OC4OC(COC(C)=O)C(O)C(O)C4O)[C@]23C)O1 (some centres undefined) | 17.4 | 17.6 | 24.1 | 19.4 | 15.7 | 15.1 | 24.6 | 18.3 | 4.63 | 14.4 | – | – | – | – | – | – | – | – | – | –
7 | CCOC(CNCCC(=O)OC)OCC | > 10 | > 10 | > 10 | > 10 | > 10 | > 10 | > 10 | > 10 | > 10 | > 10 | – | – | – | – | – | – | – | – | – | –
8 | CCc1c[n+]([O-])c(C)cc1[N+](=O)[O-] | > 100 | > 100 | > 100 | > 100 | > 100 | > 100 | > 100 | 47.3 | > 100 | > 100 | – | – | – | – | – | – | – | – | – | –
9 | C=C1c2cc3c(cc2CC12Cc1cc4c(cc1C2=O)CCC4)CCC3 (centres undefined) | > 100 | > 100 | > 100 | – | > 100 | > 100 | > 100 | > 100 | > 100 | > 100 | – | – | – | – | – | – | – | – | – | –
10 | O=C1CC(C(O)(C(F)(F)F)C(F)(F)Cl)CCC1C(O)(C(F)(F)F)C(F)(F)Cl (centres undefined) | > 10 | 5.09 | > 10 | > 10 | > 10 | > 10 | > 10 | > 10 | > 10 | > 10 | – | – | – | – | – | – | – | – | – | –
11 | Clc1ccc(CSCCc2ccncc2)cc1Cl | 33.8 | 30.4 | > 100 | 42.2 | > 100 | > 100 | > 100 | 66 | 40 | 26 | – | – | – | – | – | – | – | – | – | –
12 | NNC1=N/C(=C\c2ccco2)C(Cl)=N1 | 92.2 | > 100 | > 100 | > 100 | > 100 | > 100 | > 100 | > 100 | 51.4 | > 100 | – | – | – | – | – | – | – | – | – | –
13 | Oc1[nH]c2ccc(Br)cc2c1N=NC(=S)Nc1ccc(F)cc1 | 38 | 16.3 | 19.3 | > 100 | 22.3 | 35.4 | 23.8 | 18 | 6.84 | 8.76 | – | – | – | – | – | – | – | – | – | –
14 | CC(=O)Oc1cc(C(F)(F)F)ccc1C(=O)OC1(C)OC(=O)c2ccc(C(F)(F)F)cc2O1 (centres undefined) | > 100 | > 100 | > 100 | > 100 | > 100 | > 100 | > 100 | > 100 | > 100 | > 100 | – | – | – | – | – | – | – | – | – | –
15 | O=C(O)C(SC1=NNC2(C(=O)N1)c1ccccc1-c1ccccc12)SC1=NNC2(C(=O)N1)c1ccccc1-c1ccccc12 | > 10 | > 10 | > 10 | > 10 | > 10 | > 10 | > 10 | > 10 | > 10 | > 10 | – | – | – | – | – | – | – | – | – | –
16 | COc1ccc(S(=O)(=O)N2C(=O)CCC2C(=O)NN)cc1 (centres undefined) | > 100 | > 100 | > 100 | > 100 | > 100 | > 100 | > 100 | > 100 | > 100 | > 100 | – | – | – | – | – | – | – | – | – | –
